Experimental findings from patent US12180192B2, “Modulators of THR-β and methods of use thereof” (ALIGOS THERAPEUTICS, INC., priority 2019, dated 2024) are described below.

Like-named read-outs stand apart in the source and are kept apart here.

What is called EC50 is the concentration giving half of the maximal effect. By Emax is commonly meant the maximal effect, on the per cent scale that the assay sets.

In assay [1] the target is T1, human thyroid receptor beta ligand-binding domain (LBD) (Homo sapiens, UniProt P10828).
T1 construct: purchased Invitrogen
T1 sequence (P10828 217-461 limits assumed): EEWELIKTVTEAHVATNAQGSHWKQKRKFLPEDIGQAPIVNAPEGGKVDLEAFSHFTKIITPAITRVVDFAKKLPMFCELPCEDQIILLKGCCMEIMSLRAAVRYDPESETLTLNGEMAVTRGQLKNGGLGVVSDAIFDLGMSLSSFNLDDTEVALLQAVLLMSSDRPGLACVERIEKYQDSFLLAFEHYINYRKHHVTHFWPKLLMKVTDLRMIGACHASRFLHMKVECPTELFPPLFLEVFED
Description: TR-FRET thyroid receptor beta coactivator assay (THR biochemical assay, Assay 1). As to conditions: for EC50: THR-beta, TR-FRET coactivator assay, read-out: Activity category Assay 1 (EC50, THR-beta agonist); for Emax / Activity category Assay 1 THRβ (Emax): Table 5, Assay 1, THRβ; for Emax: read-out: Activity category Assay 1 THRβ (Emax). In a few lines:
(§1)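 GST-tagged human TRβ or TRα LBD, 1 nM final (stated for β), with fluorescein-SRC2-2 coactivator peptide (200 nM) and Tb-anti-GST antibody (2 nM). Agonists serially diluted, 1% DMSO final. 1 h incubation at rt in the dark; TR-FRET read as rise in fluorescein and drop in terbium emission.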

Assay [2] has as its target T2, human thyroid receptor alpha ligand-binding domain (LBD) (Homo sapiens, UniProt P10827).
T2 construct: purchased Invitrogen
Description: TR-FRET thyroid receptor alpha coactivator assay (THR biochemical assay, Assay 1). The note with it: for EC50: Table 4, THR-alpha, read-out: Activity category Assay 1 (EC50, THR-alpha agonist activity); for Emax / Activity category Assay 1 THRα (Emax): Table 5, THRα; for Emax: read-out: Activity category Assay 1 THRα (Emax). The method in brief: as §1
For orientation: In TR-FRET formats the signal depends on donor and acceptor labels being close together.

For assay [3], the system named is CPT1A gene expression in Huh-7 cells. Description: Huh-7 differential gene expression, CPT1A RT-qPCR (Assay 3). The note with it: Table 6, Huh-7 cells, CPT1A, 24 hr treatment; for EC50: read-out: Activity category Assay 3 EC50; for Emax: read-out: Activity category Assay 3 Emax. It is filed as cell-based. The protocol:
Huh-7 Differential Gene Expression (Assay 3)
Fetal bovine serum (FBS) was incubated with washed resin (50 mg resin/mL FBS; resin weight is dry weight of resin prior to washing) for 5 hr at room temperature on a rotor. The FBS was separated from the resin via centrifugation and incubated with new, washed resin for 18 h at room temperature on a rotor.
Cell Culture and Drug Treatment
Huh-7 cells were cultured in DMEM (10-013-CM, Corning) supplemented with 10% FBS and 1% Pen-Strep at 37° C. under 5% C02. When 70-80% confluence was reached, the cells were removed by trypsinization. The medium was aspirated from the cell culture dish, the cell monolayer was washed with 1×PBS, and 0.05% trypsin, 0.53 mM EDTA (25-052-CV, Corning) solution was added to the dish. After 3 min incubation, the cells were detached completely by repeatedly pipetting solution onto the monolayer. Equal volume of DMEM supplemented with 10% rFBS and 1% Pen-Strep (TH-depleted DMEM) was added to the dish to inactivate the trypsin. The cell suspension was centrifuged at 350×g at room temperature for 3 min. The supernatant was aspirated out and the cell pellet was resuspended in TH-depleted DMEM. […] After 24 hr incubation, the media was replaced with treatment media. All compounds were serially diluted in DMSO and final concentrations were reached by dilution in TH-depleted DMEM (0.1% DMSO). The cells were incubated in treatment media for 24 hr. Treatments were performed in biological duplicates.
After 24 hr in treatment media, the cells were lysed directly on the culture plates and cDNA was produced using the TaqMan™ Fast Advanced Cells-to-CT™ Kit (A35374, Invitrogen) and following the manufacturer's protocol. RT-qPCR for CPT1A (Hs00912671_m1) and two housekeeping genes, ACTB (Hs01060665_g1) and TFG (Hs02832013_g1), was performed using TaqMan™ Fast Advanced Master Mix. RT-qPCR reactions were run on the qTOWER^3 84 G (Analytik Jena) in technical duplicates.
ΔRn values were obtained from the qPCRsoft384 1.0 software and CPT1A gene expression was quantified via the 2-ΔΔCt method. Dose-response curves were generated using GraphPad Prism 8 using four parameter logistic equation without top constraint to derive EC50 and Emax.
For orientation: Real-time PCR tracks product formation cycle by cycle.

T2 sequence (P10827 163-410 isoform P10827-2 limits assumed, other chains not shown): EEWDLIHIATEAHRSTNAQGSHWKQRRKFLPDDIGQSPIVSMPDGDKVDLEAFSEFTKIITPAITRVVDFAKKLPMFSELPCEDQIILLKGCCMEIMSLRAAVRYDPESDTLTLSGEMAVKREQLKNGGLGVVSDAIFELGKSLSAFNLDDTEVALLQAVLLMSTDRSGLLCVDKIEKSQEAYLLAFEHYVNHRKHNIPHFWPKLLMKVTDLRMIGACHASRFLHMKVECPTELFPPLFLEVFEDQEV

With `Nc1nn(-c2cc(Cl)c(Oc3cc(C4CCC4)c(=O)[nH]n3)c(Cl)c2)c(=O)[nH]c1=O` [Compound 40, 6-amino-2-[3,5-dichloro-4-[(5-cyclobutyl-6-oxo-1H-pyridazin-3-yl)oxy]phenyl]-4H-1,2,4-triazine-3,5-dione], the 50% effective concentration (EC50) in assay [1] is below 50 nM; in assay [2] it was 50 to 250 nM; in assay [3] (Homo sapiens, Huh-7, 24 h), below 100 nM. The Emax in assay [1] was 50 to 75%; in assay [2], 50 to 75%; in assay [3] (Homo sapiens, Huh-7, 24 h), above 75%.
`CC(C)c1c[nH]c2ccc(Oc3c(Cl)cc(-n4nc(C#N)c(=O)[nH]c4=O)cc3Cl)cc12` [Compound 1, 2-[3,5-dichloro-4-[(3-isopropyl-1H-indol-5-yl)oxy]-phenyl]-3,5-dioxo-4H-1,2,4-tri-azine-6-carbonitrile]: the half-maximal effective concentration (EC50) in assay [1] was below 50 nM; in assay [2], below 50 nM; in assay [3] (Homo sapiens, Huh-7, 24 h), 100 to 1000 nM. Moreover, the Emax in assay [1] is 50 to 75%; in assay [2], below 50%; in assay [3] (Homo sapiens, Huh-7, 24 h), above 75%.
Regarding `CC(C)c1cc(Oc2c(Cl)cc(-c3nn(C)c(=O)[nH]c3=O)cc2Cl)n[nH]c1=O` [Compound 16, 6-[3,5-dichloro-4-[(5-isopropyl-6-oxo-1H-pyridazin-3-yl)oxy]phenyl]-2-methyl-4H-1,2,4-triazine-3,5-dione], the EC50 was 50 to 250 nM in assay [1]; 250 to 1000 nM in assay [2]; 100 to 1000 nM in assay [3] (Homo sapiens, Huh-7, 24 h). The maximal effect (Emax) in assay [1] was 50 to 75%; in assay [2], below 50%; in assay [3] (Homo sapiens, Huh-7, 24 h) it was below 50%.
`CC(c1cc(Oc2c(Cl)cc(-n3nc(N)c(=O)[nH]c3=O)cc2Cl)n[nH]c1=O)C1CC(F)(F)C1` (single isomer, unassigned) [Compound 61-A, 6-amino-2-[3,5-dichloro-4-([5-[1-(3,3-difluorocyclobutyl)ethyl]-6-oxo-1H-pyridazin-3-yl]oxy)phenyl]-4H-1,2,4-tri-azine-3,5-dione]: the EC50 in assay [1] is below 50 nM; in assay [2], 50 to 250 nM; in assay [3] (Homo sapiens, Huh-7, 24 h), below 100 nM. The maximum response (Emax) in assay [1] and in assay [2] was 50 to 75% each time. Further, in assay [3], the “Activity category Assay 3 Emax” value is “B (Emax≥50%, and <75%)”.
Regarding `Nc1nn(-c2cc(Cl)c(Oc3cc(C4Cc5ccccc54)c(=O)[nH]n3)c(Cl)c2)c(=O)[nH]c1=O` (stereo not drawn) [Compound 158], the EC50 in assay [1] is below 50 nM; in assay [2], 250 to 1000 nM; in assay [3] (Homo sapiens, Huh-7, 24 h) it was above 100 nM. For the same molecule, the maximal effect (Emax) in assay [1] was below 50%; in assay [2], below 50%; in assay [3] (Homo sapiens, Huh-7, 24 h), below 50%.
As to `Cc1cc(-n2nc(C#N)c(=O)[nH]c2=O)cc(C)c1Cc1ccc2[nH]c(=O)cc(C(C)C)c2c1` [Compound 90, 2-(4-((4-Isopropyl-2-oxo-1,2-dihydroquinolin-6-yl)methyl)-3,5-dimethylphenyl)-3,5-dioxo-2,3,4,5-tetrahydro-1,2,4-triazine-6-carbonitrile], the 50% effective concentration (EC50) was below 50 nM in assay [1]; 50 to 250 nM in assay [2]; above 100 nM in assay [3] (Homo sapiens, Huh-7, 24 h). In addition, the maximal response (Emax) in assay [1] was below 50%; in assay [2] it was below 50%; in assay [3] (Homo sapiens, Huh-7, 24 h), 50 to 75%.
As to `Cc1cc(-n2nc(N)c(=O)[nH]c2=O)cc(C)c1Cc1ccc2c(c1)C1(CC1)C(=O)N2` [Compound 151, 6-Amino-2-(3,5-dimethyl-4-((2′-oxospiro[cyclopropane-1,3′-indolin]-5′-yl)methyl)phenyl)-1,2,4-triazine-3,5(2H,4H)-dione], the EC50 in assay [1] was below 50 nM; in assay [2], below 50 nM; in assay [3] (Homo sapiens, Huh-7, 24 h), below 100 nM. For the same molecule, the Emax in assay [1] is 50 to 75%; in assay [2], above 75%; in assay [3] (Homo sapiens, Huh-7, 24 h), above 75%.
On to `Nc1nn(-c2cc(Cl)c(Oc3cc(-c4ccc5c(c4)CCCC5)c(=O)[nH]n3)c(Cl)c2)c(=O)[nH]c1=O` [Compound 72, 6-Amino-2-(3,5-dichloro-4-((6-oxo-5-(5,6,7,8-tetrahydro-naphthalen-2-yl)-1,6-dihydro-pyridazin-3-yl)oxy)phenyl)-1,2,4-triazine-3,5(2H,4H)-dione], for which the EC50 was 50 to 250 nM in assay [1]; above 25000 nM in assay [2]; 100 to 1000 nM in assay [3] (Homo sapiens, Huh-7, 24 h). Moreover, the maximum response (Emax) in assay [1] is below 50%; in assay [2], below 50%; in assay [3] (Homo sapiens, Huh-7, 24 h), above 75%.
Regarding `CC(C)Nc1n[nH]c2ccc(Oc3c(Cl)cc(-n4nc(C#N)c(=O)[nH]c4=O)cc3Cl)cc12` [Compound 145, 2-(3,5-dichloro-4-((3-(isopropylamino)-1H-indazol-5-yl)oxy)phenyl)-3,5-dioxo-2,3,4,5-tetrahydro-1,2,4-triazine-6-carbonitrile], the EC50 in assay [1] was below 50 nM; in assay [2], below 50 nM; in assay [3] (Homo sapiens, Huh-7, 24 h), 100 to 1000 nM. Besides, the maximal response (Emax) in assay [1] was below 50%; in assay [2], 50 to 75%; in assay [3] (Homo sapiens, Huh-7, 24 h) it was above 75%.
For `Nc1nn(-c2cc(Cl)c(Oc3cc(-c4ccc5c(c4)CCCO5)c(=O)[nH]n3)c(Cl)c2)c(=O)[nH]c1=O` [Compound 114], the EC50 in assay [1] was 50 to 250 nM; in assay [2] it was above 25000 nM; in assay [3] (Homo sapiens, Huh-7, 24 h), 100 to 1000 nM. Further, the maximal response (Emax) in assay [1] was below 50%; in assay [2], below 50%; in assay [3] (Homo sapiens, Huh-7, 24 h), 50 to 75%.
In the case of `CCC(C)c1cc(Oc2c(Cl)cc(-n3nc(N)c(=O)[nH]c3=O)cc2Cl)n[nH]c1=O` (stereo not drawn) [Compound 39-A], in assay [1], the EC50 was below 50 nM and the “Activity category Assay 1 THRβ (Emax)” value is “C (Emax<50%)”. In assay [2], the 50% effective concentration (EC50) lay in the range of 250 to 1000 nM; the “Activity category Assay 1 THRα (Emax)” value is “B (Emax≥50%, and <75%)”. In assay [3], the “Activity category Assay 3 Emax” value was “B (Emax≥50%, and <75%)”; the 50% effective concentration (EC50) is below 100 nM.
In the case of `CCC(C)c1cc(Oc2c(Cl)cc(-n3nc(N)c(=O)[nH]c3=O)cc2Cl)n[nH]c1=O` (stereo not drawn) [Compound 39-B], in assay [1], the half-maximal effective concentration (EC50) is below 50 nM; the “Activity category Assay 1 THRβ (Emax)” value was “B (Emax≥50%, and <75%)”. In assay [2], the EC50 lay in the range of 50 to 250 nM; the “Activity category Assay 1 THRα (Emax)” value was “B (Emax≥50%, and <75%)”. Moreover, in assay [3], the “Activity category Assay 3 Emax” value is “A (Emax≥75%)” and the concentration giving a half-maximal response (EC50) was below 100 nM.
Turning to `C[C@H]1C[C@H](c2cc(Oc3c(Cl)cc(-n4nc(N)c(=O)[nH]c4=O)cc3Cl)n[nH]c2=O)C1` (single isomer, unassigned) [Compound 86-A, 6-Amino-2-(3,5-dichloro-4-((5-((1r,3r)-3-methylcyclobutyl)-6-oxo-1,6-dihydropyridazin-3-yl)oxy)phenyl)-1,2,4-triazine-3,5(2H,4H)-dione], the EC50 in assay [1] is 50 to 250 nM; in assay [2], 250 to 1000 nM; in assay [3] (Homo sapiens, Huh-7, 24 h) it was below 100 nM. The Emax was below 50% in assay [1]; below 50% in assay [2]; 50 to 75% in assay [3] (Homo sapiens, Huh-7, 24 h).
For the molecule `Cc1cc(-n2nc(N)c(=O)[nH]c2=O)cc(C)c1Cc1ccc2[nH]cc(C(C)C)c2n1` [Compound 55, 6-amino-2-[4-[(3-isopropyl-1H-pyrrolo[3,2-b]pyridin-5-yl)methyl]-3,5-dimethyl-phenyl]-1,2,4-triazine-3,5-dione], the EC50 was below 50 nM in assay [1]; below 50 nM in assay [2]; below 100 nM in assay [3] (Homo sapiens, Huh-7, 24 h). Also, the Emax was 50 to 75% in assay [1]; 50 to 75% in assay [2]; above 75% in assay [3] (Homo sapiens, Huh-7, 24 h).
